Results on 16 compounds are retold here after US9290487B2, “Pharmaceutical composition for treating diabetes” (Ajinomoto Co., Inc., priority 2011, dated 2016).

Read-outs that look alike come from different tables or passages of the source.

For test [1], the target named is human GYS1 (glycogen synthase) (Homo sapiens (Human), UniProt P13807). Briefly: Measurement of glycogen synthase activity (coupled pyruvate kinase/lactate dehydrogenase assay, absorbance at 340 nm). The conditions noted are these: concentration inducing relative activity of 50% (100% = Ex. 1 of WO/2011/058154 at 10 μM). The format is biochemical. Here is the method: A human GYS1 expression plasmid (pCDNA3.1(+)-hGYS1) was constructed by the following method. Using a human skeletal muscle cDNA of Human MTC Panel I (Takara Bio Inc., 636742) as a template, a human GYS1 gene was amplified by a PCR method using cloning primers (Forward Primer: ATGCCTTTAAACCGCAC (SEQ ID NO: 1), Reverse Primer: TTAGTTACGCTCCTCGC (SEQ ID NO: 2)). Using the amplified human GYS1 sequence as a template, a restriction enzyme sequence was added by a PCR method using sub-cloning primers (Forward Primer: […] (SEQ ID NO: 3), Reverse Primer: […] (SEQ ID NO: 4)). Then, the human GYS1 gene was introduced between a Xho I site and a Xba I site of pCDNA3.1(+) (Invitrogen Corporation, V790-20).
Glycogen synthase was prepared by the following method according to the published article (THE JOURNAL OF BIOLOGICAL CHEMISTRY Vol. 269, No. 41, 25534-25542, 1994). Human kidney-derived HEK293T cells were seeded in a dish (Thermo Fisher Scientific Inc., 168381) using a 10% FBS-containing DMEM (Nacalai Tesque, Inc., 0845874) medium, and cultured overnight. Then, using Lipofectamine LTX (Invitrogen Corporation, 15338-100), the human GYS1 expression vector was transfected according to the attached manual. After culturing under conditions of 37° C. and 5% CO2 for 2 days, the resultant was dissolved in a lysis buffer (50 mM Tris-HCl (pH 8.0), 10 mM EDTA, 2 mM EGTA, 100 mM NaF, 1 mM PMSF, 1 mM DTT, 1× Complete (Roche Diagnostics K. K., 1873580)), homogenized, and then centrifuged at 16000×g at 4° C. for 15 minutes. To the precipitated fraction, a lysis buffer was added. Re-dissolved fractions were used as glycogen synthase for evaluation.
The glycogen synthase activity was measured by the following method. To a polystyrene 96-well plate, a solution containing 30 mM glycylglycine (pH 7.3), 40 mM KCl, 20 mM MgCl2, 9.2% DMSO containing one of the test compounds at various concentrations, and 10 mM glucose-6-phosphate (Sigma-Aldrich Corporation, G7879) was added by 12 μL/well.
Next, a substrate solution containing 30 mM glycylglycine (pH 7.3), 4.3 mg/mL of glycogen (Sigma-Aldrich Corporation, G8876), 21.6 mM UDP-glucose (Sigma-Aldrich Corporation, U4625), 21.6 mM phosphoenolpyruvic acid (Sigma-Aldrich Corporation, P0564), and 4.05 mM NADH (Sigma-Aldrich Corporation, N8129) was added by 18 μL/well.
Further, an enzyme solution containing 50 mM Tris-HCl (pH 8.0), 27 mM DTT (Nacalai Tesque, Inc., 14128-04), 0.2 mg/mL of bovine serum albumin, 0.17 mg/mL of the glycogen synthase, 1.5 μL of a pyruvate kinase/lactate dehydrogenase solution (Sigma-Aldrich Corporation, P0294) was added by 18 μL/well to prepare a reaction solution. After the reaction solution was incubated (at 30° C. for 25 minutes for Examples 1 to 10, at 37° C. for 20 minutes for Examples 11 to 75), the absorbance at 340 nm was measured using Benchmark Plus (Bio-Rad Laboratories, Inc.).
The activities of the test compounds were calculated by the following method. The change in the absorbance (ΔA340) was calculated by subtracting the absorbance at 340 nm of the reaction solution containing the compound and DMSO from the absorbance at 340 nm of a reaction solution not containing the compound but containing only DMSO. The ΔA340 of the reaction solution containing the compound of Example 1 in WO/2011/058154 at the final concentration of 10 μM was taken as 100% to calculate the relative activity (%) of the test compounds at various concentrations. EC50 representing the concentration of the compound which induces an increase in the relative activity to 50% was calculated using XLfit (idbs).

Another test concerns the target PPAR-α (Homo sapiens (Human), UniProt Q07869). Briefly: Measurement of PPAR-α activity (GAL4 luciferase reporter assay in CV-1 cells). The format is cell-based. To be noted: 100(A/B), B = compound in WO/2011/058154 at 100 μM, read-out: PPARα relative fold induction (%). Here is the method:
The PPAR-α activity was measured according to the published article (THE JOURNAL OF BIOLOGICAL CHEMISTRY Vol. 270, No. 22, 12953-12956, 1995).
Plasmids used for the PPAR-α activity measurement were constructed as follows. A luciferase expression plasmid (UASx5-TK-Luc) used was obtained by introducing a sequence, in which five yeast GAL4-binding sequences are linked in tandem, upstream of a thymidine kinase promoter of pTAL-Luc (Takara Bio Inc., 6252-1). A PPAR-α receptor expression plasmid (hGR-GAL4-hPPARα) used was obtained by introducing a human GR N-terminal region (1-76 aa), a yeast GAL4 DNA-binding region (1-147 aa), and a PPARα ligand-binding region (167-468 aa) between a Not I site and a Sal I site of pExchange-1 Core Vector (Invitrogen Corporation, 211176).
A reporter assay was conducted by the following method using Cercopithecus aethiops kidney-derived CV-1 cells. The CV-1 cells were seeded in a 96-well plate (Thermo Fisher Scientific Inc., 4938) at 2×10^4 cells/well using a 10% FBS-containing DMEM (Nacalai Tesque, Inc., 0845874) medium. After culturing under conditions of 37° C. and 5% CO2 for 2 hours, the plasmids were transfected. Lipofectamine LTX (Invitrogen Corporation, 15338-100) was used for the transfection according to the attached manual. The plasmid solution was prepared by adding a mixture solution of the luciferase expression plasmid and the PPAR-α receptor expression plasmid to OPTI-MEM I (Invitrogen Corporation, 11058-021). After the transfection was conducted, the test compound was added, and cultured at 37° C. in the presence of 5% CO2 for 18 to 20 hours. After the culturing was completed, the luciferase activity was measured with Luminescensor JNR (ATTO) using Bright-Glo (Promega Corporation, E2620).
The fold induction of PPAR-α by the test compounds was calculated by the following method. For the compounds of Examples 1, 4, 5, 7, and 9, PPAR-α relative fold induction (%) was defined as 100 (A/B), where A represents the maximum value of PPAR-α activities with the test compound at 0.3 μM, 1 μM, 3 μM, 10 μM, 30 μM, and 100 μM, and B represents the PPAR-α activity with the compound in WO/2011/058154 at 100 μM. For the compounds of Examples 11, 15, 19, 22, 26, and 32, PPAR-α relative fold induction (%) was defined as 100 (A/B), where A represents the maximum value of PPAR-α activities with the test compound at 3 μM, 10 μM, 30 μM, and 100 μM, and B represents the PPAR-α activity with the compound in WO/2011/058154 at 100 μM.
On the technique in general: A reporter such as luciferase makes a cellular process visible.

Setting [2] is: incubation at 30° C. for 25 minutes (Examples 1 to 10).
Where [3] appears, read: incubation at 37° C. for 20 minutes (Examples 11 to 75).
[4] abbreviates: test concentrations not stated for these examples.

Sequence of PPAR-α (Q07869 167-468): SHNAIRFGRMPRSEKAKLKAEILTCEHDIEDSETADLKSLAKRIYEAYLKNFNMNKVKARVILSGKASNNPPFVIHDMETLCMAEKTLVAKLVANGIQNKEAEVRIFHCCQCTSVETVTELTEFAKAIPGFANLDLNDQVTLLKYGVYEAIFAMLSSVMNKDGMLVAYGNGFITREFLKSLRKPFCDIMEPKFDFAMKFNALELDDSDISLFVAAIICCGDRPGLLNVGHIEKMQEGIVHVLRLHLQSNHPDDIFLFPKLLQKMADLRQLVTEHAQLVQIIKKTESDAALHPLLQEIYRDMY
Sequence of human GYS1 (glycogen synthase) (P13807 whole entry): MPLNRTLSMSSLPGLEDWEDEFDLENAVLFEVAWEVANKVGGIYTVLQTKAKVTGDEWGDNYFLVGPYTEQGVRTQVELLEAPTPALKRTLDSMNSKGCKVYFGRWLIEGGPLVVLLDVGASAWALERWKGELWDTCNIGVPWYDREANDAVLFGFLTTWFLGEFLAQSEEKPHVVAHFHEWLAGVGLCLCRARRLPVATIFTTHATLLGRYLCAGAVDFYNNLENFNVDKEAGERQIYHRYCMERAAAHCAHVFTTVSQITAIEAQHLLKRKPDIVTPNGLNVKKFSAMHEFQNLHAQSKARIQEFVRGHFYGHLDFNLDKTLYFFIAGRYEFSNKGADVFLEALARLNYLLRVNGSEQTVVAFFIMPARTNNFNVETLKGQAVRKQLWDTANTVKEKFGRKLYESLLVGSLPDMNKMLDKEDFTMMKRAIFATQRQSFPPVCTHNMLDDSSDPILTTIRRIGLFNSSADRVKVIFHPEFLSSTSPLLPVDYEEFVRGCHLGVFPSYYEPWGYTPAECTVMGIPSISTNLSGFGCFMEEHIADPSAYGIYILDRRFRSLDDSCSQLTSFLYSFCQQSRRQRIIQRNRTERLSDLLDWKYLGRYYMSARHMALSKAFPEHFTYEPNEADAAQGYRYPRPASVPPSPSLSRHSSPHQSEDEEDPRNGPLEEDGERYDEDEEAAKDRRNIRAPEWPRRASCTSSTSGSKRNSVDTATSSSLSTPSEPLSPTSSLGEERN

In turn, `O=C(O)[C@@H]1CCCN1C(=O)c1cccc(COc2ccc(-c3cccc4c3OCO4)cc2)c1` [compound of Ex. 4, 1-(3-{[4-(1,3-benzodioxol-4-yl)phenoxy]methyl}benzoyl)-L-proline] had a concentration giving a half-maximal response (EC50) in test [1] (setting [2]) of 250 nM. Moreover, on PPAR-α (A = maximum activity at 0.3, 1, 3, 10, 30 and 100 μM), the Emax turned out to be 17%.
Take `O=C(O)[C@@H]1CCCN1C(=O)c1cccc(COc2ccc(-c3cc(F)cc4c3OCC=C4)cc2)c1` [compound of Ex. 11]: the Emax on PPAR-α (A = maximum activity at 3, 10, 30 and 100 μM) was determined as 18%.
As to `N#CCCSc1cc(F)c(F)cc1-c1ccc(OCc2cccc(C(=O)N3CCC[C@H]3C(=O)O)c2)cc1` [compound of Ex. 72, 1-{3-[({2′-[(2-cyanoethyl)thio]-4′,5′-difluorobiphenyl-4-yl}oxy)methyl]benzoyl}-L-proline], the EC50 in test [1] (setting [3]) turned out to be 190 nM. The Emax on PPAR-α (setting [4]) is 15%.
For `COC(=O)c1cc(F)c(F)cc1-c1ccc(OCc2cccc(C(=O)N3CCC[C@H]3C(=O)O)c2)cc1` [compound of Ex. 44, 1-[3-({[4′,5′-difluoro-2′-(methoxycarbonyl)biphenyl-4-yl]oxy}methyl)benzoyl]-L-proline], in that order: 810 nM and 10%.
The like results for `O=C(O)[C@@H]1CCCN1C(=O)c1cccc(COc2ccc(-c3cc(F)c(F)cc3SCCO)cc2)c1` [compound of Ex. 69, 1-{3-[({4′,5′-difluoro-2′-[(2-hydroxyethyl)thio]biphenyl-4-yl}oxy)methyl]benzoyl}-L-proline] were, in that order, 130 nM and 8.6%.
The like results for `CC(O)COc1cc(-c2ccc(OCc3cccc(C(=O)N4CCC[C@H]4C(=O)O)c3)cc2)cc(F)c1F` (stereo partly drawn) [compound of Ex. 50, 1-[3-({[3′,4′-difluoro-5′-(2-hydroxypropoxy)biphenyl-4-yl]oxy}methyl)benzoyl]-L-proline] were, in that order, 410 nM and 15%.
As for `O=C(O)[C@@H]1CCCN1C(=O)c1cccc(COc2ccc(-c3cc(F)c(F)c4c(CO)coc34)cc2)c1` [compound of Ex. 56, 1-[3-({4-[4,5-difluoro-3-(hydroxymethyl)-1-benzofuran-7-yl]phenoxy}methyl)benzoyl]-L-proline], the EC50 in test [1] (setting [3]) was 44 nM. The Emax at PPAR-α (setting [4]) was determined as 6.4%.
With `O=C(O)[C@@H]1CCCN1C(=O)c1cccc(COc2ccc(-c3cc(F)c(F)c4cc(CO)sc34)cc2)c1` [compound of Ex. 66, 1-[3-({4-[4,5-difluoro-2-(hydroxymethyl)-1-benzothien-7-yl]phenoxy}methyl)benzoyl]-L-proline], a half-maximal response in test [1] (setting [3]) (EC50) required 74 nM. Also, on PPAR-α (setting [4]), the Emax amounted to 18%.
For `O=C(O)[C@@H]1CCCN1C(=O)c1cccc(COc2ccc(-c3cc(F)c(F)c4cc(/C=N/O)oc34)cc2)c1` [compound of Ex. 58, 1-{3-[(4-{4,5-difluoro-2-[(hydroxyimino)methyl]-1-benzofuran-7-yl}phenoxy)methyl]benzoyl}-L-proline], in that order: 45 nM and 19%.
For `CC(=O)CSc1cc(F)c(F)cc1-c1ccc(OCc2cccc(C(=O)N3CCC[C@H]3C(=O)O)c2)cc1` [compound of Ex. 51, 1-{3-[({4′,5′-difluoro-2′-[(2-oxopropyl)thio]biphenyl-4-yl}oxy)methyl]benzoyl}-L-proline], in that order: 83 nM and 15%.
The like results for `N#CCc1cc(F)c(F)cc1-c1ccc(OCc2cccc(C(=O)N3CCC[C@H]3C(=O)O)c2)cc1` [compound of Ex. 61, 1-[3-({[2′-(cyanomethyl)-4′,5′-difluorobiphenyl-4-yl]oxy}methyl)benzoyl]-L-proline] were, in that order, 790 nM and 10%.
With `O=C(O)[C@@H]1CCCN1C(=O)c1cccc(COc2ccc(-c3ccc(F)c4c3OCC4)cc2)c1` [compound of Ex. 10], in test [1] (setting [2]), a half-maximal effect (EC50) was put at 350 nM.
On to `NC(=NO)c1cc2c(F)c(F)cc(-c3ccc(OCc4cccc(C(=O)N5CCC[C@H]5C(=O)O)c4)cc3)c2o1` [compound of Ex. 57, 1-{3-[(4-{2-[amino(hydroxyimino)methyl]4,5-difluoro-1-benzofuran-7-yl}phenoxy)methyl]benzoyl}-L-proline], for which, in test [1] (setting [3]), it took 140 nM to reach a half-maximal effect (EC50).
Same read-out and setting: with `O=C(O)[C@@H]1CCN1C(=O)c1cccc(COc2ccc(-c3cc(F)c(F)c4ccoc34)cc2)c1` [compound of Ex. 59, (2S)-1-(3-{[4-(4,5-difluoro-1-benzofuran-7-yl)phenoxy]methyl}benzoyl)azetidine-2-carboxylic acid] the figure was 150 nM.
Compound `O=C(O)[C@@H]1CCCN1C(=O)c1cccc(COc2ccc(-c3ccc4occc4c3)cc2)c1` [compound of Ex. 6] showed an EC50 in test [1] (setting [2]) of 330 nM. This counts as sub-micromolar.
In the case of `C#CCOc1cc(F)c(F)cc1-c1ccc(OCc2cccc(C(=O)N3CCC[C@H]3C(=O)O)c2)cc1` [compound of Ex. 34, 1-[3-({[4′,5′-difluoro-2′-(prop-2-yn-1-yloxy)biphenyl-4-yl]oxy}methyl)benzoyl]-L-proline], a half-maximal response in test [1] (setting [3]) (EC50) required 17 nM.

The EC50 is the concentration at which the effect is half-maximal. Read a low EC50 as a more potent agent.
